Measurements published in ChEMBL document CHEMBL1156337, “Synthesis and evaluation of novel benzothiazole derivatives based on the bithiophene structure as potential radiotracers for beta-amyloid plaques in Alzheimer's disease” (Bioorg Med Chem, 2010).

What was measured:
[1] = Displacement of [125I]TZDM from amyloid beta (1 to 42) aggregates after 2 hrs
[2] = Displacement of [125I]TZDM from amyloid beta (1 to 40) aggregates after 2 hrs

| Structure (SMILES) | Ki [1] [nM] | Ki [2] [nM] |
| --- | --- | --- |
| CN(C)c1ccc(-c2nc3ccc(I)cc3s2)cc1 | 0.9 | 2.2 |
